Test: xn = mol fraction of the nth substance listed
Details: Liquid, Vibrating tube method, x1 = 1

CCO [ethanol] + CCCCCCC
mass density [kg/m3]
Details	293.15 K	303.15 K	313.15 K	323.15 K	333.15 K
100 kPa	789.4	781.1	772.3	763.1	754.2
5000 kPa	793.5	785.7	776.9	768	759.4
10000 kPa	797.5	789.8	781.5	772.9	764.6
15000 kPa	801.4	794	785.8	777.3	769.4
20000 kPa	805.2	797.8	789.8	781.4	773.8
25000 kPa	808.7	801.6	793.7	785.7	777.8
30000 kPa	812.1	805	797.4	789.4	781.7
35000 kPa	815.3	808.5	801	793.1	785.6
40000 kPa	818.6	811.8	804.4	796.7	789.3
45000 kPa	821.6	814.9	807.8	800.1	792.8
50000 kPa	824.6	817.9	810.8	803.5	796.3
55000 kPa	827.5	821.1	813.7	806.6	799.7
60000 kPa	830.2	824	816.6	809.7	802.9
65000 kPa	832.9	826.7	819.5	812.6	806
